The values below are quoted from earlier work in patent US20040054001A1, “Fumaric acid derivatives as nf-kappab inhibitors” (priority 2001, published 2004).

This series deals with Ehrlich ascites tumour. As to conditions: mice; cited from earlier work.

In the case of `O=C(O)/C=C/C(=O)O` [fumaric acid], the “growth of the Ehrlich ascites tumour” value is “inhibits”.
